Measured values published in ChEMBL document CHEMBL3271974, “Synthesis of the antileukemic compound N,N(11)-[5-[bis(2-chloroethyl)amino]-1, 3-phenylene]bisurea” (J Med Chem, 1976).

Assays:
[1] = tested on: P388; experiment: Antitumor activity against mouse P388 cells allografted in mouse assessed as increase in survival rate at 120 mg/kg relative to control; format: functional
[2] = tested on: Mus musculus; experiment: Toxicity in mouse allografted with mouse P388 cells at 120 mg/kg; format: organism-based; parameters: dose 120 mg/kg; conditions: in vivo
[3] = tested on: P388; experiment: Antitumor activity against mouse P388 cells allografted in mouse assessed as increase in survival rate at 225 mg/kg relative to control; format: functional
[4] = tested on: Mus musculus; experiment: Toxicity in mouse allografted with mouse P388 cells at 225 mg/kg; format: organism-based; parameters: dose 225 mg/kg; conditions: in vivo

Structure (SMILES) | T/C [1] [%] | Activity [2] | T/C [3] [%] | Activity [4]
NC(=O)Nc1cc(NC(N)=O)cc(N(CCCl)CCCl)c1 | 194 | Non-toxic |  | 
CC(=O)Nc1cc(NC(C)=O)cc(N(CCCl)CCCl)c1 |  |  | 196 | Non-toxic
